Experimental data from PubChem BioAssay AID1963840 (Molecular Pharmacology Branch, DTP, NCI, 2024).

Test system: 695427-040-R-J1-PDC complex spheroid viability
Experiment: Anticancer human tumor 695427-040-R-J1-PDC patient-derived colon adenocarcinoma cell line growth inhibition [POLQ]
Conditions: for IC50: curve of first compound; for viability, T/C: stronger effect = lower value
Experimental: Multicellular complex tumor spheroid response to Polymerase (POL) inhibitors (novobiocin, ART-558, RP6685) in combination with a variety of drugs and investigational agents in selected tumor cell lines
The POL inhibitors (novobiocin, ART-558, and RP6685) were evaluated both individually and in combination with standard of care and investigational anticancer small molecules within a complex spheroid model of solid tumors. . Complex spheroids include a stromal component modeled by human endothelial cells (HUVEC) and fibroblasts modeled by human mesenchymal stem cells (MSCs). The concentration ranges selected for each drug and investigational agent were based upon clinically achievable concentrations if the clinical Cmax of the agent was known.
Compounds. The drugs and investigational agents: novobiocin (NSC847541), ART-558 (NSC835418), RP-6685 (NSC848927), peposertib (NSC802822), ceralasertib (NSC780249), elimusertib (NSC800525), camonsertib (NSC841442), AZD-1390 (NSC803789), olaparib (NSC753686), talazoparib (NSC767125), rucaparib (NSC756644), sotorasib (NSC818433), MRTX-1133 (NSC836407), SN-38 (NSC673596), topotecan (NSC609699), epotoside (NSC141540), doxorubicin (NSC123127), gemcitabine (NSC613327), 5-fluorouracil (NSC19893), paclitaxel (NSC125973), vemurafenib (NSC761431), MSA-2 (NSC828583), SN-011 (NSC837082), adavosertib (NSC754352), prexasertib (NSC758257), carboplatin (NSC241240) and oxaliplatin (NSC266046), were obtained from the National Cancer Institute (NCI) Developmental Therapeutics Program Chemical Repository (21). The FDA-approved anticancer drug set is available from the Developmental Therapeutics Program at https://dtp.cancer.gov/organization/dscb/obtaining/. […] The stock solutions were prepared in dimethyl sulfoxide (DMSO, Sigma-Aldrich, St. Louis, MO, cat. D2650), except for the platinum compounds which were prepared in saline (Quality Biological, Gaithersburg, MD, cat. 114-055-101), at 800-fold the tested concentration and stored at -70 degrees C prior to their use. All drugs and investigational agents were tested over a range starting from a high concentration at or near the clinical Cmax and decreasing in half-log increments. If the clinical Cmax for an agent had not been determined, the highest concentration tested was 10 microM, except for SN-38, which was tested at a high concentration of 1 microM.
Cell Culture. All cells were maintained in an incubator at 37 degrees C and 5% CO2 with 95% humidity. The PDC lines were cultured according to standard operating procedures established by the NCI PDMR (https://pdmr.cancer.gov). Table 3 of the manuscript, lists the cell lines along with the number of the three cell types plated to form the mct-spheroids and media for tumor cell growth. After thawing, all PDC lines, except 997537-175-T-J1-PDC and 415267-285-R-J2-PDC, were cultured in Matrigel-coated flasks prepared with a working solution of 1X Ham's F-12 nutrient mix, without supplementation (Thermo Fisher Scientific, cat. 11765054), 100 U/mL penicillin-streptomycin (Thermo Fisher Scientific, cat. 15140122), and 2.5% Matrigel (Corning Inc., Corning, NY, cat. 354248) for the first three passages. The two PDC lines 997537-175-T-J1-PDC and 415267-285-R-J2-PDC were cultured on uncoated flasks. The 857933-349-R-J2-PDC line was cultured in 6C/Colon 1B media containing advanced DMEM/F-12 (Thermo Fisher Scientific, cat. 12634028), 10 mM HEPES (Thermo Fisher Scientific, cat. 15630080), 1X GlutaMAX supplement (Thermo Fisher Scientific, cat. 35050061), 0.1 mg/mL primocin (InvivoGen, San Diego, CA, cat. ant-pm-2), 10% defined fetal bovine serum, heat inactivated (HyClone Laboratories Inc., Logan, UT, cat. SH30070.03HI), 50% L-WRN conditioned media (ATCC, cat. CRL-3276), 1.25 mM N-Acetyl-L-cysteine (Sigma-Aldrich, cat. A9165), 10 mM nicotinamide (Sigma-Aldrich, cat. N0636), 1X B-27 supplement (Thermo Fisher Scientific, cat. 17504044), 1X N-2 supplement (Thermo Fisher Scientific, cat. […]
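Further: spheroids exposed to compounds for seven days.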
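Wherever viability, T/C is given: 100% = DMSO vehicle control viability.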

Structure (SMILES): Cn1ncnc1[C@H]1c2n[nH]c(=O)c3cc(F)cc(c23)N[C@@H]1c1ccc(F)cc1 + Cc1cccc(N(C)C(=O)C2C(O)CCN2c2nc(C)cc(C(F)(F)F)c2C#N)c1
- IC50 (second compound 0.0316 µM): > 100 nM
- IC50 (second compound 0.1 µM): > 100 nM
- IC50 (second compound 0.316 µM): > 100 nM
- IC50 (second compound 1 µM): > 100 nM
- IC50 (second compound 3.16 µM): > 100 nM
- IC50 (second compound 10 µM): > 100 nM
- viability, T/C (second compound 0.0316 µM, first compound 0.000316 µM): 99.1%
- viability, T/C (second compound 0.0316 µM, first compound 0.001 µM): 97.2%
- viability, T/C (second compound 0.0316 µM, first compound 0.00316 µM): 102%
- viability, T/C (second compound 0.0316 µM, first compound 0.01 µM): 99%
- viability, T/C (second compound 0.0316 µM, first compound 0.0316 µM): 99.4%
- viability, T/C (second compound 0.0316 µM, first compound 0.1 µM): 96.8%
- viability, T/C (second compound 0.1 µM, first compound 0.000316 µM): 108%
- viability, T/C (second compound 0.1 µM, first compound 0.001 µM): 91.2%
- viability, T/C (second compound 0.1 µM, first compound 0.00316 µM): 98.8%
- viability, T/C (second compound 0.1 µM, first compound 0.01 µM): 102%
- viability, T/C (second compound 0.1 µM, first compound 0.0316 µM): 102%
- viability, T/C (second compound 0.1 µM, first compound 0.1 µM): 96.7%
- viability, T/C (second compound 0.316 µM, first compound 0.000316 µM): 102%
- viability, T/C (second compound 0.316 µM, first compound 0.001 µM): 102%
- viability, T/C (second compound 0.316 µM, first compound 0.00316 µM): 96.6%
- viability, T/C (second compound 0.316 µM, first compound 0.01 µM): 105%
- viability, T/C (second compound 0.316 µM, first compound 0.0316 µM): 107%
- viability, T/C (second compound 0.316 µM, first compound 0.1 µM): 94.7%
- viability, T/C (second compound 1 µM, first compound 0.000316 µM): 99.2%
- viability, T/C (second compound 1 µM, first compound 0.001 µM): 98.3%
- viability, T/C (second compound 1 µM, first compound 0.00316 µM): 89.5%
- viability, T/C (second compound 1 µM, first compound 0.01 µM): 93.2%
- viability, T/C (second compound 1 µM, first compound 0.0316 µM): 99.3%
- viability, T/C (second compound 1 µM, first compound 0.1 µM): 94.6%
- viability, T/C (second compound 3.16 µM, first compound 0.000316 µM): 88.9%
- viability, T/C (second compound 3.16 µM, first compound 0.001 µM): 101%
- viability, T/C (second compound 3.16 µM, first compound 0.00316 µM): 92.5%
- viability, T/C (second compound 3.16 µM, first compound 0.01 µM): 101%
- viability, T/C (second compound 3.16 µM, first compound 0.0316 µM): 102%
- viability, T/C (second compound 3.16 µM, first compound 0.1 µM): 88.8%
- viability, T/C (second compound 10 µM, first compound 0.000316 µM): 89.2%
- viability, T/C (second compound 10 µM, first compound 0.001 µM): 87.4%
- viability, T/C (second compound 10 µM, first compound 0.00316 µM): 87.8%
- viability, T/C (second compound 10 µM, first compound 0.01 µM): 88.6%
- viability, T/C (second compound 10 µM, first compound 0.0316 µM): 93.3%
- viability, T/C (second compound 10 µM, first compound 0.1 µM): 90.4%
